Test results published in US7037919B1, “Tetrahydroquinoline derivatives” (Kaken Pharmaceutical Co. Ltd., priority 1999, dated 2006).

Experiments:
AR = assay: Assignment of compounds as having AR agonistic or AR antagonistic action (description, no method given); conditions: compounds named as usable for category A diseases
[1] = molecular target: T1, Rat androgen receptors (rat AR) (Rattus norvegicus, UniProt P15207); assay: Test for competitive binding to rat androgen receptors; conditions: 3H-testosterone, rat prostate AR fraction; hydroxyflutamide taken as 100
T1 construct: from tissue; host or cells: prostate of orchiectomized male SD rats (100,000 x g supernatant)
T1 sequence (P15207 1-902): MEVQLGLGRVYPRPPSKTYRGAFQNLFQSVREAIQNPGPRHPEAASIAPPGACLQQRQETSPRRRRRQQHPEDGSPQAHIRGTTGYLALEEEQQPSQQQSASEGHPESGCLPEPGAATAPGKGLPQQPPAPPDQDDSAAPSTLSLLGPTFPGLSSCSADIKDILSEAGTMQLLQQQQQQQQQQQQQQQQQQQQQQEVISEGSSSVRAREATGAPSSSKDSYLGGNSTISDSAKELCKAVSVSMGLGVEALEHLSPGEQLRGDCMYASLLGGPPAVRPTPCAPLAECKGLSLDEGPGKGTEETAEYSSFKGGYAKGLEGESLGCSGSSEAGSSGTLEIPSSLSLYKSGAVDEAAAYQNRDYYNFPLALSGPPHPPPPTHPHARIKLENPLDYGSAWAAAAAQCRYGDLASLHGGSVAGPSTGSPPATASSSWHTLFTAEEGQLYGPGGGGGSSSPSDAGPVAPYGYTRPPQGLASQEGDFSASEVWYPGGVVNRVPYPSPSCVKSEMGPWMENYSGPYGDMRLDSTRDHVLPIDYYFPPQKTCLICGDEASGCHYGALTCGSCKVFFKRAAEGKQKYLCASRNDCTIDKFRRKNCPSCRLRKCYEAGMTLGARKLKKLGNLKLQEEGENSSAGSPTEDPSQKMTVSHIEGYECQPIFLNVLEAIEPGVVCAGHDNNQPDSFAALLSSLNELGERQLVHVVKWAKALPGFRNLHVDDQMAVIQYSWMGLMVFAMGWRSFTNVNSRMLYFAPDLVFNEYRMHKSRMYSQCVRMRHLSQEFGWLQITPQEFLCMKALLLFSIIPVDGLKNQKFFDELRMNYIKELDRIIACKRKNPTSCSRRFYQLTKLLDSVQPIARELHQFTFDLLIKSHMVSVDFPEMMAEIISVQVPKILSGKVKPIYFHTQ
Method: Test for Competitive Binding to Rat Androgen Receptors (Rat AR)
Preparation of rat AR fraction: Prostates were harvested into ice-cooled ET buffer (10 mM Tris, 1 mM EDTA, 5 mM DTT, 10 mM sodium molybdate, pH 7.4) 3 days after orchiectomy in 11-week-old male SD rats. The prostate was finely cut, and ET buffer was added, whereafter the mixture was homogenized using a homogenizer. The homogenate was ultracentrifuged (100,000×g, 60 min, 4° C.), and the supernatant was used as a rat AR fraction (hereinafter referred to as ARF).
Binding test: ^3H-testosterone (hereinafter referred to as ^3H-T) was diluted with ET buffer. Dihydrotestosterone (DHT) was prepared so as to have a concentration (final concentration 1 μM) 400 times the maximum concentration of ^3H-T (2.5 nM). The ^3H-T solution was added to a 1.5 ml tube containing DHT, no DHT, or the test compound with a varying concentration. Further, 200 μg ARF was added to adjust the final volume to 100 μl. The mixture was incubated for 2 hours at 4° C., and then 300 μl of a 0.05% dextran T70-1.0% activated carbon solution was added. The mixture was further incubated for 15 minutes in ice to remove the free ^3H-T. After centrifugation (4° C., 2,500 rpm, 5 min), 275 μl of the supernatant was harvested into a liquid scintillation vial, and 2 ml of clear-sol was added. The mixture was stirred, allowed to stand, and measured for ^3H radioactivity with a liquid scintillation counter.
Calculation of the relative binding inhibition rate: The binding inhibition rate (%) of the compound according to the present invention was calculated from the following equation, and the 50% inhibition concentration (IC50) was calculated by the probit analysis of the concentration-binding inhibition curve.
The relative binding inhibition rate (RBA: Relative Binding Affinity) was obtained from the following equation (Endocrinology 138, 863-870, 1997): RBA=100×(IC50 of hydroxyflutamide)/(IC50 of the compound of the present invention) • RBA's of the compounds of the present invention, calculated as above, are shown in Table 10.

[2] = system: orchiectomized (ORX) rats; assay: Action of increasing prostate weight in orchiectomized (ORX) rats (Test Example 3); type: in vivo, rat; conditions: 30 mg/kg s.c. once daily for 8 days, ORX SD rats, Mean ± SD
Method: Action of Increasing Prostate Weight in Rats After Orchiectomized (ORX) Rats
Orchiectomy was performed in 8-week-old male SD rats. From 5 days postoperation, the compound of the present invention (Example 60, 30 mg/kg), dissolved in a 5% dimethyl sulfoxide-containing olive oil solution, was subcutaneously injected once daily for 8 days. On the next day after final administration, the wet weight of the ventral prostate was measured to evaluate the AR agonistic effect of the compound of the present invention.

orchiectomized rats = assay: Action of increasing prostate weight in orchiectomized rats (Test Example 2, printed 21); type: in vivo, rat; conditions: for Weight of prostate: orchiectomized SD rats, Mean ± SD
Method: Action of Increasing Prostate Weight in Orchiectomized Rats
Testes were removed from 8- to 12-week-old male SD rats. From 5 days postoperation, the compound of the present invention (3, 30 mg/kg), suspended in a 0.5% methyl cellulose solution, was subcutaneously injected once daily for a consecutive week, and 6 days weekly for 8 consecutive weeks. On the next day after final administration, the wet weight of the ventral prostate was measured to evaluate the in vivo AR agonistic effect of the compound of the present invention.

[3] = system: orchiectomized (ORX) rats; assay: Action of increasing prostate weight and bone mineral density in orchiectomized (ORX) rats (Test Example 4); type: in vivo, rat; conditions: 10 mg/kg s.c. once daily, 5 days weekly, 4 weeks, ORX SD rats, Mean ± SD
Method: Action of Increasing Prostate Weight and Bone Mineral Density in Orchiectomized (ORX) Rats
Orchiectomy was performed in 12-week-old male SD rats. From the next day postoperation, the positive control compound dihydrotestosterone (DHT, 10 mg/kg) and the compound of the present invention (Example 60, 60 mg/kg), each dissolved in a 5% dimethyl sulfoxide-containing olive oil solution, were subcutaneously injected once daily, 5 days weekly, for 4 weeks. On the next day after final administration, the wet weight of the ventral prostate was measured to evaluate the AR agonistic effect of the compound of the present invention. On the next day following final administration, moreover, the right femur was removed, and fixed overnight in a 10% neutrally buffered formalin solution. Then, the bone mineral density at the site ranging from the diaphysis to the proximal end was measured by the method of double energy X-ray absorption using a bone mineral content-measuring machine (Aloka, DCS-600) to evaluate increasing action of bone mineral density of the compound of the present invention.

Structure (SMILES)	RBA (Relative Binding Affinity = 100 x IC50 of hydroxyflutamide / IC50 of the compound) [1]	other results
CNC(=S)NCC(C)(C)C1Nc2ccc([N+](=O)[O-])cc2C2C=CCC21 (stereo not drawn) [Example 67]	–	AR agonistic action (AR): AR agonistic action
CC(C)(O)C(=O)Nc1ccc([N+](=O)[O-])c(C(F)(F)F)c1 [Hydroxyflutamide, hydroxyflutamide, reference compound]	100	–
CC(C)C(=O)NCC(C)(C)C1Nc2ccc([N+](=O)[O-])cc2C2C=CCC21 (stereo not drawn) [Example 53]	55	–
CC(C)(CNS(C)(=O)=O)C1Nc2ccc([N+](=O)[O-])cc2C2C=CCC21 (stereo not drawn) [Example 59]	2288	–
CC(=O)Nc1ccc(S(=O)(=O)NCC(C)(C)C2Nc3ccc([N+](=O)[O-])cc3C3C=CCC32)cc1 (stereo not drawn) [Example 63]	580	–
CC(C)NC(=O)NCC(C)(C)C1Nc2ccc([N+](=O)[O-])cc2C2C=CCC21 (stereo not drawn) [Example 64, 1-isopropyl-3-[2-methyl-2-(8-nitro-3a,4,5,9b-tetrahydro-3H-cyclopenta[c]quinolin-4-yl)-propyl]urea]	298	–
CC(C)(CCl)C1Nc2ccc([N+](=O)[O-])cc2C2C=CCC21 (stereo not drawn) [Example 29]	75	–
CC(=O)SCC(C)(C)C1Nc2ccc([N+](=O)[O-])cc2C2C=CCC21 (stereo not drawn) [Example 76, thioacetic acid S-[2-methyl-2-(8-nitro-3a,4,5,9b-tetrahydro-3H-cyclopenta[c]quinolin-4-yl)propyl]ester]	131	–
Cc1cccc(NC(=O)NCC(C)(C)C2Nc3ccc([N+](=O)[O-])cc3C3C=CCC32)c1 (stereo not drawn) [Example 65]	–	AR agonistic action (AR): AR agonistic action
CC(=O)OCC(C)(C)C1Nc2ccc([N+](=O)[O-])cc2C2C=CCC21 (stereo not drawn) [Example 23]	–	AR agonistic action (AR): AR agonistic action
CC(=O)NCC(C)(C)C1Nc2ccc([N+](=O)[O-])cc2C2C=CCC21 (stereo not drawn) [Example 52]	478	–
COC(C)(C)C1Nc2ccc([N+](=O)[O-])cc2C2C=CCC21 (stereo not drawn) [Example 19]	57	–
CC(C)NC(=S)NCC(C)(C)C1Nc2ccc([N+](=O)[O-])cc2C2C=CCC21 (stereo not drawn) [Example 69]	244	Weight of prostate [2]: 21 ± 2 mg/body weight 100 g
CC(C)(CO)C1Nc2ccc(C#N)cc2C2C=CCC21 (stereo not drawn) [Example 35, 4-(2-Hydroxy-1,1′-dimethyl-ethyl)-3a,4,5,9b-tetrahydro-3H-cyclopenta[c]quinoline-8-carbonitrile]	236	–
CC(C)(OCc1ccccc1)C1Nc2ccc([N+](=O)[O-])cc2C2C=CCC21 (stereo not drawn) [Example 21]	74	–
CC(C)(C)OC(=O)NCC(C)(C)C1Nc2ccc([N+](=O)[O-])cc2C2C=CCC21 (stereo not drawn) [Example 25]	–	AR agonistic action (AR): AR agonistic action
CC(C)(CNS(=O)(=O)c1ccc(F)cc1)C1Nc2ccc([N+](=O)[O-])cc2C2C=CCC21 (stereo not drawn) [Example 61]	169	–
CCNC(=S)NCC(C)(C)C1Nc2ccc([N+](=O)[O-])cc2C2C=CCC21 (stereo not drawn) [Example 68]	491	–
CC(C)(CO)C1Nc2ccc([N+](=O)[O-])cc2C2C=CCC21 (stereo not drawn) [Example 1, 2-methyl-2-(8-nitro-3a,4,5,9b-tetrahydro-3H-cyclopenta[c]quinolin-4-yl)-propan-1-ol]	4751	Weight of prostate (orchiectomized rats; 1-week treatment, 3 mg/kg s.c. once daily): 18 ± 4 mg/body weight (100 g); Weight of prostate (orchiectomized rats; 1-week treatment, 30 mg/kg s.c. once daily): 26 ± 3 mg/body weight (100 g); Weight of prostate (orchiectomized rats; 8-week treatment, 3 mg/kg s.c. 6 days weekly): 52 ± 8 mg/body weight (100 g); Weight of prostate (orchiectomized rats; 8-week treatment, 30 mg/kg s.c. 6 days weekly): 97 ± 14 mg/body weight (100 g); Prostate weights in comparison with the comparative example (orchiectomized rats; consecutively administered for 1 week (3, 30 mg/kg s.c.)): significantly increased prostate weights; Prostate weight relative to normal control (orchiectomized rats; duration of treatment extended to 8 weeks (3, 30 mg/kg s.c.)): restored the atrophied prostate up to the level of the normal control; AR agonistic action (AR): AR agonistic action
CC(C)(CNC(=O)c1ccccc1)C1Nc2ccc([N+](=O)[O-])cc2C2C=CCC21 (stereo not drawn) [Example 56]	–	AR agonistic action (AR): AR agonistic action
C[C@]12CCC(=O)C[C@@H]1CC[C@@H]1[C@@H]2CC[C@]2(C)[C@@H](O)CC[C@@H]12 [DHT, dihydrotestosterone, reference compound]	–	Prostate weight [3]: 150 ± 14 mg/body weight 100 g; Bone mineral density ([3]; right femur): 131 ± 7 mg/cm^2
CC(C)(CNC(=O)Nc1ccc([N+](=O)[O-])cc1)C1Nc2ccc([N+](=O)[O-])cc2C2C=CCC21 (stereo not drawn) [Example 66]	–	AR agonistic action (AR): AR agonistic action
CC(C)(CO)C1Nc2cccc([N+](=O)[O-])c2C2C=CCC21 (stereo not drawn) [Example 7]	65	–
CC(=O)OCC(C)(C)C1Nc2ccc(C#N)cc2C2C=CCC21 (stereo not drawn) [Example 40, acetic acid 2-(8-cyano-3a,4,5,9b-tetrahydro-3H-cyclopentatc[c]quinolin-4-yl)-2-methylpropyl ester]	96	–
